In general, IC50 refers to the concentration that inhibits the measured activity by half. Higher therefore signals weaker potency in that assay.

Sequence of Hsp82 (P02829 whole entry): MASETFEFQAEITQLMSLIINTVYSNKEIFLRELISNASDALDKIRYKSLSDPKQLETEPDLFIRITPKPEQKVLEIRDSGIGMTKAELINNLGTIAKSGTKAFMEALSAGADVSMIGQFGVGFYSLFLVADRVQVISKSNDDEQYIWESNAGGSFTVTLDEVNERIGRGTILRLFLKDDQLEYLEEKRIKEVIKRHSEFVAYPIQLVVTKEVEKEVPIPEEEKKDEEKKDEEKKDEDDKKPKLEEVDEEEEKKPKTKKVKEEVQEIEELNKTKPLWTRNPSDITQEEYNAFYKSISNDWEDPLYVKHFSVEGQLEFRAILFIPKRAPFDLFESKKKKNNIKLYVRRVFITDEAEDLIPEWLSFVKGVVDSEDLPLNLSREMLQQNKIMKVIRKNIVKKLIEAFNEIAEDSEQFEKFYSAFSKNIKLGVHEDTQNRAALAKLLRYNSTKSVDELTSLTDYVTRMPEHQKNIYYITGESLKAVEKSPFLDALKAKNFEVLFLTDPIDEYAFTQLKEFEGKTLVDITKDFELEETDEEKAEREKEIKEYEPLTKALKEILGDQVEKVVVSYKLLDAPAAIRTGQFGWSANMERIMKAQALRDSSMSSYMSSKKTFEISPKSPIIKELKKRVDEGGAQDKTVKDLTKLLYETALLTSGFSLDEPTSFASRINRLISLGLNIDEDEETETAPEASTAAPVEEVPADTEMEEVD

The target in this assay is Hsp82 (Saccharomyces cerevisiae, UniProt P02829). The experiment in a line: Hsp82 ATPase activity, pyruvate kinase/lactate dehydrogenase enzymatic coupling method (NADH absorbance at 340 nm). The format is biochemical. The settings on record: 1 μM Hsp82, 250 μM ATP, 37° C., PK/LDH coupled, initial rate. The text has this:
The formation of ADP due to the ATPase activity of Hsp82 was used to develop another method for evaluating the enzymatic activity of this enzyme by application of an enzymatic coupling system involving pyruvate kinase (PK) and lactate dehydrogenase (LDH). In this kinetic-type spectrophotometric method, PK catalyses the formation of ATP and of pyruvate from phosphoenol pyruvate (PEP) and the ADP produced by Hsp82. The pyruvate formed, which is a substrate for LDH, is subsequently converted to lactate in the presence of NADH. In this case, the decrease in NADH concentration, measured through the decrease in absorbance at the wavelength of 340 nm, is proportional to the concentration of ADP produced by Hsp82.
The products tested are incubated in a reaction volume of 100 μl of buffer composed of 100 mM Hepes-NaOH (pH 7.5), 5 mM MgCl2, 1 mM DTT, 150 mM KCl, 0.3 mM NADH, 2.5 mM PEP and 250 μM ATP. This mixture is preincubated at 37° C. for 30 minutes before the addition of 3.77 units of LDH and 3.77 units of PK. The reaction is initiated by addition of the product to be evaluated, in varying concentrations, and of Hsp82, at the concentration of 1 μM. The enzymatic activity of Hsp82 is then measured continuously, in a microplate reader, at 37° C., at the wavelength of 340 nm. The initial rate of the reaction is obtained by measuring the slope of the tangent to the origin of the curve recorded. The enzymatic activity is expressed in μM of ADP formed per minute. The effect of the various products tested is expressed as capacity for inhibiting the ATPase activity according to the codification below: […]
As for `O=C(NC1c2cccc(-c3cnc4ccccc4c3)c2-n2cccc21)c1ccnc2[nH]ccc12` (stereo not shown) [Example 2, 1H-pyrrolo[2,3-b]pyridine-4-carboxylic acid (5-quinolin-3-yl-9H-pyrrolo[1,2-a]indol-9-yl)amide], the IC50 fell in the range of 1000 to 10000 nM. `O=C(NC1c2cccc(-c3nc4ccncc4[nH]3)c2-n2cccc21)c1ccnc2[nH]ccc12` (stereo not shown) [Example 3, 1H-pyrrolo[2,3-b]pyridine-4-carboxylic acid [5-(3H-imidazo[4,5-c]pyridin-2-yl)-9H-pyrrolo[1,2-a]indol-9-yl]amide] registered a half-maximal inhibitory concentration (IC50) below 1000 nM. `O=C(NC1c2cccc(-c3nc4ccncc4[nH]3)c2-n2cccc21)c1cc(Cl)nc2[nH]ccc12` (stereo not shown) [Example 4, 6-chloro-1H-pyrrolo[2,3-b]pyridine-4-carboxylic acid [5-(3H-imidazo[4,5-c]pyridin-2-yl)-9H-pyrrolo[1,2-a]indol-9-yl]amide] yielded a half-inhibitory concentration (IC50) of 1000 to 10000 nM. `O=C(NC1c2cccc(-c3nc4ccc(F)cc4[nH]3)c2-n2cccc21)c1ccnc2[nH]ccc12` (stereo not shown) [Example 1, 1H-pyrrolo[2,3-b]pyridine-4-carboxylic acid [5-(6-fluoro-1H-benzimidazol-2-yl)-9H-pyrrolo[1,2-a]indol-9-yl]amide] returned an IC50 below 1000 nM.

These data come from US8178687B2, “Derivatives of pyrroloindole which are inhibitors of Hsp90, compositions containing same, and use thereof” (Sanofi-Aventis, priority 2009, dated 2012).
